Columns and labels:
[1] = test system: STC-1 xenografts; assay: Ex vivo biodistribution in NSG mice bearing STC-1 xenografts; details: for Biodistribution, Bladder / Biodistribution, Blood / Biodistribution, Bone / Biodistribution, Brain / Biodistribution, Fat / Biodistribution, Heart / Biodistribution, Kidneys / Biodistribution, Liver / Biodistribution, Lungs / Biodistribution, Muscle / Biodistribution, Pancreas / Biodistribution, Small Intestines / Biodistribution, Spleen / Biodistribution, Stomach / Biodistribution, Tumor: STC-1 xenograft NSG mice, 1.5MBq i.v.
Method: All animal studies were carried out according to regulations set forth and approved by the Johns Hopkins Animal Care and Use Committee. Female, 6- to 8-weeks-old immunodeficient NOD scid gamma (NSG) mice were subcutaneously inoculated with 1 million PC12, STC-1 or COLO-320 cells in […] of Hank’s balanced salt solution in the top flank. Tumors of 4–6 mm in diameter (typically 14-21 days post inoculation) were utilized for in vivo imaging or ex vivo biodistribution studies.
Mice (n=5 per group) were intravenously injected with 1.5MBq (40μCi) of each tracer in 150μL of saline. Ex vivo biodistribution studies were performed at 30min and 120min time points after tracer administration. Blood, liver, spleen, heart, lungs, kidneys, small intestines, stomach, muscle, fat, bone, bladder, brain and tumor tissues were retrieved, weighed, and counted in an automated gamma counter (1282 Compugamma CS). Percentage injected dose per gram (%ID/g) values were calculated based on normalization to external standards, counted in triplicate, and accounted for signal-decay correction.

[2] = test system: STC-1 cells; assay: In vitro uptake (binding) assay in STC-1 cells; format: cell-based; details: 30mins incubation, 1 million cells, % incubated dose/million cells
Method: Both [^18F]FDOPA enantiomers were initially assessed in vitro in all NET cells.
In vitro binding assays were carried out, in triplicate, in PBS with 0.5% FBS, for 30mins at ambient temperatures using 1 million cells and repeated three times. Blocking studies were carried out using 10meq of the commercial LAT1 inhibitor, 2-Aminobicyclo[2.2.1]heptane-2-carboxylic acid (TOCRIS, MN, USA). Following incubation with each tracer, cells were rinsed three times with cold PBS prior to being counted on an automated gamma counter (1282 Compugamma CS; Pharmacia/LKBNuclear, Inc.) along with external standards. Obtained counts were converted into percentage incubated dose per million cells based on normalization to external standards. Experiments were performed in triplicate and repeated three times.

Compound: N[C@H](Cc1cc(O)c(O)cc1[18F])C(=O)O [D-[^18F]FDOPA, 3,4-dihydroxy-6-[^18F]fluoro-D-phenylalanine]
- pancreatic retention, fold lower compared to L-[^18F]FDOPA ([1]; STC-1 mice, 120min p.i.): approximately 2 fold
- Biodistribution, Bladder ([1]; 30min p.i.): 20.49 %ID/g
- Biodistribution, Blood ([1]; 30min p.i.): 4.31 %ID/g
- Biodistribution, Bone ([1]; 30min p.i.): 3.94 %ID/g
- Biodistribution, Brain ([1]; 30min p.i.): 0.55 %ID/g
- Biodistribution, Fat ([1]; 30min p.i.): 2.27 %ID/g
- Biodistribution, Heart ([1]; 30min p.i.): 2.52 %ID/g
- Biodistribution, Kidneys ([1]; 30min p.i.): 12.32 %ID/g
- Biodistribution, Liver ([1]; 30min p.i.): 3.85 %ID/g
- Biodistribution, Lungs ([1]; 30min p.i.): 6.63 %ID/g
- Biodistribution, Muscle ([1]; 30min p.i.): 1.62 %ID/g
- Biodistribution, Pancreas ([1]; 30min p.i.): 61.64 %ID/g
- Biodistribution, Small Intestines ([1]; 30min p.i.): 10.28 %ID/g
- Biodistribution, Spleen ([1]; 30min p.i.): 17.41 %ID/g
- Biodistribution, Stomach ([1]; 30min p.i.): 9.37 %ID/g
- Biodistribution, Tumor ([1]; 30min p.i.): 6.92 %ID/g
- Biodistribution, Bladder ([1]; 120min p.i.): 7.51 %ID/g
- Biodistribution, Blood ([1]; 120min p.i.): 1.49 %ID/g
- Biodistribution, Bone ([1]; 120min p.i.): 5.28 %ID/g
- Biodistribution, Brain ([1]; 120min p.i.): 1.30 %ID/g
- Biodistribution, Fat ([1]; 120min p.i.): 1.14 %ID/g
- Biodistribution, Heart ([1]; 120min p.i.): 1.58 %ID/g
- Biodistribution, Kidneys ([1]; 120min p.i.): 2.30 %ID/g
- Biodistribution, Liver ([1]; 120min p.i.): 1.60 %ID/g
- Biodistribution, Lungs ([1]; 120min p.i.): 2.34 %ID/g
- Biodistribution, Muscle ([1]; 120min p.i.): 2.66 %ID/g
- Biodistribution, Pancreas ([1]; 120min p.i.): 9.75 %ID/g
- Biodistribution, Small Intestines ([1]; 120min p.i.): 3.80 %ID/g
- Biodistribution, Spleen ([1]; 120min p.i.): 0.61 %ID/g
- Biodistribution, Stomach ([1]; 120min p.i.): 4.84 %ID/g
- Biodistribution, Tumor ([1]; 120min p.i.): 3.15 %ID/g
- in vitro uptake [2]: 2.41±0.17%

Reference: article PMC6791383, “A side-by-side evaluation of [^18F]FDOPA enantiomers for non-invasive detection of neuroendocrine tumors by positron emission tomography” (Oncotarget, 2019)
